The source of these data is patent US20250215012A1, “IKZF2 DEGRADERS AND USES THEREOF” (REGENTS OF THE UNIVERSITY OF MICHIGAN, priority 2022, published 2025).

For the assay, the target named is IKZF2 (Homo sapiens (Human), UniProt Q96SW2+Q9UKS7). Briefly: IKZF2 HiBiT Assay (Jurkat-IKZF2-HiBiT cell line). To be noted: Jurkat-IKZF2-HiBiT cells, 24 hours; for DC50: read-out: HiBit assay degradation analysis DC50; for Dmax: read-out: HiBit assay degradation analysis Dmax. The class given is cell-based. The method, boiled down:
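IKZF2 degradation was assessed as HiBiT luminescence in Jurkat-IKZF2-HiBiT cells, using lytic detection after 24 h of compound treatment at 37 °C, 5% CO2.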

SMILES strings stand for the structures.

Sequence of IKZF2 (Q9UKS7 whole entry): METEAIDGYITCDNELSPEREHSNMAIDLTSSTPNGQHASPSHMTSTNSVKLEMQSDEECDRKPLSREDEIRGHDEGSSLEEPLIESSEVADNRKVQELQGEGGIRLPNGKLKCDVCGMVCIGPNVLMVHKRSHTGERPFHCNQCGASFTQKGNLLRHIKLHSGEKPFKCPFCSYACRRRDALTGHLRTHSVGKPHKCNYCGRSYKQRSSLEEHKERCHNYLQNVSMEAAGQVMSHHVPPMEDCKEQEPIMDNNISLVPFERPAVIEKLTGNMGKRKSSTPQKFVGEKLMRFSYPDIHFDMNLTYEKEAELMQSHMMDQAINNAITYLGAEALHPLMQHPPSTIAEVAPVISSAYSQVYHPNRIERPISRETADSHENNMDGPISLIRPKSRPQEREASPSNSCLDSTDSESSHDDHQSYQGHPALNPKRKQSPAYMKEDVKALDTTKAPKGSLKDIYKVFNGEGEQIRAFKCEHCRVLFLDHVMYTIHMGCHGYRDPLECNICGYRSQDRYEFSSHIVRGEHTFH
Sequence of IKZF2 (Q96SW2 whole entry): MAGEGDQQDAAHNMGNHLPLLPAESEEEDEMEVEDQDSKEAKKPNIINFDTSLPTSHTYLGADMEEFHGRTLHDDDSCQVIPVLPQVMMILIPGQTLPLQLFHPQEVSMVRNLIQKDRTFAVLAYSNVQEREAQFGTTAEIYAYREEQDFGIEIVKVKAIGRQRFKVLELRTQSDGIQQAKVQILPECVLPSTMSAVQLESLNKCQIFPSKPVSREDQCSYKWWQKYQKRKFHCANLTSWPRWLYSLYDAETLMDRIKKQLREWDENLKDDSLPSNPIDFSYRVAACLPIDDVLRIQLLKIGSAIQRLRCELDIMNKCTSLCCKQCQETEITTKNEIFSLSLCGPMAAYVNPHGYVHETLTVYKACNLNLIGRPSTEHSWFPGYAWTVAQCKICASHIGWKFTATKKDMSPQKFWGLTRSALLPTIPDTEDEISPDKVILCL
Sequence of IKZF2 (Q16531 whole entry partner): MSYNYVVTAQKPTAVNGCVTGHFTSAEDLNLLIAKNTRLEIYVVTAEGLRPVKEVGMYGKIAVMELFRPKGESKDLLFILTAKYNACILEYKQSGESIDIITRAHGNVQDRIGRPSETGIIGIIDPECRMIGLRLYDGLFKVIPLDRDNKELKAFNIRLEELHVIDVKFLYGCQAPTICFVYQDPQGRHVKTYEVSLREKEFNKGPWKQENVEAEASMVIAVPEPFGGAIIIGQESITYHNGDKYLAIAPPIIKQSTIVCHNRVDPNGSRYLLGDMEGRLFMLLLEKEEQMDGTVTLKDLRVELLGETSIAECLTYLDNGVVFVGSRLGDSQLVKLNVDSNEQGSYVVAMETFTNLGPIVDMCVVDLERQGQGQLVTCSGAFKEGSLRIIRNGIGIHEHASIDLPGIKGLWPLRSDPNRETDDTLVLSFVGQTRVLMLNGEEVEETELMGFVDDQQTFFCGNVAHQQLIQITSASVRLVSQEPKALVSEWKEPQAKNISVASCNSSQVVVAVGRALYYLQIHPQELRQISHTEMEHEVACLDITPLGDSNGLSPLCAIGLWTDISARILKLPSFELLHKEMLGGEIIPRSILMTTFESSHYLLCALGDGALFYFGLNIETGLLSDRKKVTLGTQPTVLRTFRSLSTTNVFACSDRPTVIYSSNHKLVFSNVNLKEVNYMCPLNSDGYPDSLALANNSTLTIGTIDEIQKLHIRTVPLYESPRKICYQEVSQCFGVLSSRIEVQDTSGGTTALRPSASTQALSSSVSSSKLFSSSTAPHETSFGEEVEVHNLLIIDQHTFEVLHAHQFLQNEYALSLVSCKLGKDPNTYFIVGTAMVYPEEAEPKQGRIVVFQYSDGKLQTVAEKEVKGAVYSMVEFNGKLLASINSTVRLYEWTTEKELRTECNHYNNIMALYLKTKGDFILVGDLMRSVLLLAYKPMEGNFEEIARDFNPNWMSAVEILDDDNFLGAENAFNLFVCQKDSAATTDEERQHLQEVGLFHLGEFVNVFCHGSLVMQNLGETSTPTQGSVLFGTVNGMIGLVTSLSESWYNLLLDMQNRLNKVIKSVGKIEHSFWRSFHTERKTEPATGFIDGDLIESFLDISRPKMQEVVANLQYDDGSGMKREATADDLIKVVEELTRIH

The term DC50 denotes the midpoint of the concentration-degradation curve. As usually defined, the Dmax is the largest share of the target that was removed. As to `O=C1CCC(N2Cc3c(ccc4c3OCC43CCN(Cc4nc(-c5ccccc5)cs4)CC3)C2=O)C(=O)N1` (stereo not shown) [Compound A85, 3-(6-oxo-1′-((4-phenylthiazol-2-yl)methyl)-6,8-dihydro-2H,7H-spiro[furo[2,3-e]isoindole-3,4′-piperidin]-7-yl)piperidine-2,6-dione], the DC50 is above 500 nM and the greatest degradation seen (Dmax) is below 40%.

For `O=C1CCC(N2Cc3c(ccc4c3OCC43CCN(Cc4cccc(Oc5ccccc5)c4)CC3)C2=O)C(=O)N1` (stereo not shown) [Compound A86, 3-(6-oxo-1′-(3-phenoxybenzyl)-6,8-dihydro-2H,7H-spiro[furo[2,3-e]isoindole-3,4′-piperidin]-7-yl)piperidine-2,6-dione], the DC50 was above 500 nM and the Dmax lay within 40 to 60%.

Take `CC(C)(C)c1cccc(CN2CCC3(CC2)COc2c3ccc3c2CN(C2CCC(=O)NC2=O)C3=O)c1` (stereo not shown) [Compound A88, 3-(1′-(3-(tert-butyl)benzyl)-6-oxo-6,8-dihydro-2H,7H-spiro[furo[2,3-e]isoindole-3,4′-piperidin]-7-yl)piperidine-2,6-dione]: the DC50 was above 500 nM and the greatest degradation seen (Dmax) was below 40%.

Take `O=C1CCC(N2Cc3c(ccc4c3OCC43CCN(CC4CCC(c5ccccc5)CC4)CC3)C2=O)C(=O)N1` (stereo not shown) [Compound A89, 3-(6-oxo-1′-((4-phenylcyclohexyl)methyl)-6,8-dihydro-2H,7H-spiro[furo[2,3-e]isoindole-3,4′-piperidin]-7-yl)piperidine-2,6-dione]: the DC50 fell in the range of 50 to 200 nM and the greatest degradation seen (Dmax) lay in the range of 60 to 80%.

As for `O=C1CCC(N2Cc3c(ccc4c3OCC43CCN(Cc4cccc(OC(F)F)c4)CC3)C2=O)C(=O)N1` (stereo not shown) [Compound A90, 3-(1′-(3-(difluoromethoxy)benzyl)-6-oxo-6,8-dihydro-2H,7H-spiro[furo[2,3-e]isoindole-3,4′-piperidin]-7-yl)piperidine-2,6-dione], the DC50 is above 500 nM and the Dmax was below 40%.

As to `O=C1CCC(N2Cc3c(ccc4c3OCC43CCN(Cc4cccc(Br)c4)CC3)C2=O)C(=O)N1` (stereo not shown) [Compound A91, 3-(1′-(3-bromobenzyl)-6-oxo-6,8-dihydro-2H,7H-spiro[furo[2,3-e]isoindole-3,4′-piperidin]-7-yl)piperidine-2,6-dione], the DC50 is below 50 nM and the Dmax fell in the range of 60 to 80%.

On to `CCOc1cccc(CN2CCC3(CC2)COc2c3ccc3c2CN(C2CCC(=O)NC2=O)C3=O)c1` (stereo not shown) [Compound A92, 3-(1′-(3-ethoxybenzyl)-6-oxo-6,8-dihydro-2H,7H-spiro[furo[2,3-e]isoindole-3,4′-piperidin]-7-yl)piperidine-2,6-dione], for which the DC50 lay within 50 to 200 nM and the greatest degradation seen (Dmax) was 40 to 60%.

As for `O=C1CCC(N2Cc3c(ccc4c3OCC43CCN(Cc4cccc(CF)c4)CC3)C2=O)C(=O)N1` (stereo not shown) [Compound A93, 3-(1′-(3-(fluoromethyl)benzyl)-6-oxo-6,8-dihydro-2H,7H-spiro[furo[2,3-e]isoindole-3,4′-piperidin]-7-yl)piperidine-2,6-dione], the DC50 was in the range of 50 to 200 nM and the Dmax was 60 to 80%.

As for `O=C1CCC(N2Cc3c(ccc4c3OCC43CCN(Cc4cccc(C(F)F)c4)CC3)C2=O)C(=O)N1` (stereo not shown) [Compound A94, 3-(1′-(3-(difluoromethyl)benzyl)-6-oxo-6,8-dihydro-2H,7H-spiro[furo[2,3-e]isoindole-3,4′-piperidin]-7-yl)piperidine-2,6-dione], the DC50 is 200 to 500 nM and the Dmax was 40 to 60%.

Consider `CNC(=O)c1cccc(CN2CCC3(CC2)COc2c3ccc3c2CN(C2CCC(=O)NC2=O)C3=O)c1` (stereo not shown) [Compound A95], for which the DC50 was above 500 nM and the Dmax is 40 to 60%.

`O=C1CCC(N2Cc3c(ccc4c3OCC43CCN(Cc4cccc(N5CCCC5)c4)CC3)C2=O)C(=O)N1` (stereo not shown) [Compound A96, 3-(6-oxo-1′-(3-(pyrrolidin-1-yl)benzyl)-6,8-dihydro-2H,7H-spiro[furo[2,3-e]isoindole-3,4′-piperidin]-7-yl)piperidine-2,6-dione]: the DC50 fell in the range of 50 to 200 nM and the Dmax lay within 60 to 80%.

In the case of `O=C1CCC(N2Cc3c(ccc4c3OCC43CCN(Cc4cccc(N5CCOCC5)c4)CC3)C2=O)C(=O)N1` (stereo not shown) [Compound A97, 3-(1′-(3-morpholinobenzyl)-6-oxo-6,8-dihydro-2H,7H-spiro[furo[2,3-e]isoindole-3,4′-piperidin]-7-yl)piperidine-2,6-dione], the DC50 was above 500 nM and the Dmax is 40 to 60%.

In the case of `O=C1CCC(N2Cc3c(ccc4c3OCC43CCN(Cc4cccc(C(=O)O)c4)CC3)C2=O)C(=O)N1` (stereo not shown) [Compound A99, 3-((7-(2,6-dioxopiperidin-3-yl)-6-oxo-7,8-dihydro-2H,6H-spiro[furo[2,3-e]isoindole-3,4′-piperidin]-1′-yl)methyl)benzoic acid], the DC50 is above 500 nM and the Dmax is below 40%.

Turning to `O=C1CCC(N2Cc3c(ccc4c3OCC43CCN(Cc4ccccc4Oc4ccccc4)CC3)C2=O)C(=O)N1` (stereo not shown) [Compound A100, 3-(6-oxo-1′-(2-phenoxybenzyl)-6,8-dihydro-2H,7H-spiro[furo[2,3-e]isoindole-3,4′-piperidin]-7-yl)piperidine-2,6-dione], the DC50 was above 500 nM and the Dmax was below 40%.

For the compound `O=C1CCC(N2Cc3c(ccc4c3OCC43CCN(Cc4cccc(Oc5ccccn5)c4)CC3)C2=O)C(=O)N1` (stereo not shown) [Compound A101, 3-(6-oxo-1′-(3-(pyridin-2-yloxy)benzyl)-6,8-dihydro-2H,7H-spiro[furo[2,3-e]isoindole-3,4′-piperidin]-7-yl)piperidine-2,6-dione], the DC50 was below 50 nM and the Dmax is 60 to 80%.

With `O=C1CCC(N2Cc3c(ccc4c3OCC43CCN(Cc4cccc(-c5ccccc5)c4)CC3)C2=O)C(=O)N1` (stereo not shown) [Compound A102, 3-(1′-([1,1′-biphenyl]-3-ylmethyl)-6-oxo-6,8-dihydro-2H,7H-spiro[furo[2,3-e]isoindole-3,4′-piperidin]-7-yl)piperidine-2,6-dione], the DC50 was 200 to 500 nM and the Dmax was 40 to 60%.

On to `O=C1CCC(N2Cc3c(ccc4c3OCC43CCN(Cc4cccc(-c5ccccn5)c4)CC3)C2=O)C(=O)N1` (stereo not shown) [Compound A103, 3-(6-oxo-1′-(3-(pyridin-2-yl)benzyl)-6,8-dihydro-2H,7H-spiro[furo[2,3-e]isoindole-3,4′-piperidin]-7-yl)piperidine-2,6-dione], for which the DC50 fell in the range of 200 to 500 nM and the Dmax was 40 to 60%.

With `O=C1CCC(N2Cc3c(ccc4c3OCC43CCN(Cc4cccc(-c5cn[nH]c5)c4)CC3)C2=O)C(=O)N1` (stereo not shown) [Compound A104, 3-(1′-(3-(1H-pyrazol-4-yl)benzyl)-6-oxo-6,8-dihydro-2H,7H-spiro[furo[2,3-e]isoindole-3,4′-piperidin]-7-yl)piperidine-2,6-dione], the DC50 was below 50 nM and the Dmax is above 80%.

For `O=C1CCC(N2Cc3c(ccc4c3OCC43CCN(Cc4cccc(-c5nccs5)c4)CC3)C2=O)C(=O)N1` (stereo not shown) [Compound A106, 3-(6-oxo-1′-(3-(thiazol-2-yl)benzyl)-6,8-dihydro-2H,7H-spiro[furo[2,3-e]isoindole-3,4′-piperidin]-7-yl)piperidine-2,6-dione], the 50% degradation concentration (DC50) was below 50 nM and the Dmax was in the range of 60 to 80%.

In the case of `O=C1CCC(N2Cc3c(ccc4c3OCC43CCN(Cc4cccc(-n5cccn5)c4)CC3)C2=O)C(=O)N1` (stereo not shown) [Compound A107, 3-(1′-(3-(1H-pyrazol-1-yl)benzyl)-6-oxo-6,8-dihydro-2H,7H-spiro[furo[2,3-e]isoindole-3,4′-piperidin]-7-yl)piperidine-2,6-dione], the DC50 was below 50 nM and the Dmax lay in the range of 60 to 80%.

On to `O=C1CCC(N2Cc3c(ccc4c3OCC43CCN(Cc4cccc(-n5ccnc5)c4)CC3)C2=O)C(=O)N1` (stereo not shown) [Compound A108, 3-(1′-(3-(1H-imidazol-1-yl)benzyl)-6-oxo-6,8-dihydro-2H,7H-spiro[furo[2,3-e]isoindole-3,4′-piperidin]-7-yl)piperidine-2,6-dione], for which the 50% degradation concentration (DC50) is above 500 nM and the Dmax lay within 40 to 60%.

For the compound `Cn1ccc2c(CN3CCC4(CC3)COc3c4ccc4c3CN(C3CCC(=O)NC3=O)C4=O)cccc21` (stereo not shown) [Compound A109, 3-(1′-((1-methyl-1H-indol-4-yl)methyl)-6-oxo-6,8-dihydro-2H,7H-spiro[furo[2,3-e]isoindole-3,4′-piperidin]-7-yl)piperidine-2,6-dione], the half-maximal degradation concentration (DC50) was below 50 nM and the greatest degradation seen (Dmax) lay in the range of 60 to 80%.

With `O=C1CCC(N2Cc3c(ccc4c3OCC43CCN(Cc4cc(F)cc5cc[nH]c45)CC3)C2=O)C(=O)N1` (stereo not shown) [Compound A110, 3-(1′-((5-fluoro-1H-indol-7-yl)methyl)-6-oxo-6,8-dihydro-2H,7H-spiro[furo[2,3-e]isoindole-3,4′-piperidin]-7-yl)piperidine-2,6-dione], the half-maximal degradation concentration (DC50) is below 50 nM and the Dmax was above 80%.

On to `Cc1[nH]c2c(CN3CCC4(CC3)COc3c4ccc4c3CN(C3CCC(=O)NC3=O)C4=O)cccc2c1C` (stereo not shown) [Compound A111, 3-(1′-((2,3-dimethyl-1H-indol-7-yl)methyl)-6-oxo-6,8-dihydro-2H,7H-spiro[furo[2,3-e]isoindole-3,4′-piperidin]-7-yl)piperidine-2,6-dione], for which the half-maximal degradation concentration (DC50) is 50 to 200 nM and the Dmax lay in the range of 60 to 80%.

For `COCc1cccc(CN2CCC3(CC2)COc2c3ccc3c2CN(C2CCC(=O)NC2=O)C3=O)c1` (stereo not shown) [Compound A112, 3-(1′-(3-(methoxymethyl)benzyl)-6-oxo-6,8-dihydro-2H,7H-spiro[furo[2,3-e]isoindole-3,4′-piperidin]-7-yl)piperidine-2,6-dione], the DC50 fell in the range of 200 to 500 nM and the Dmax lay within 60 to 80%.

In the case of `O=C1CCC(N2Cc3c(ccc4c3OCC43CCN(Cc4cccc5c4COC5)CC3)C2=O)C(=O)N1` (stereo not shown) [Compound A113, 3-(1′-((1,3-dihydroisobenzofuran-4-yl)methyl)-6-oxo-6,8-dihydro-2H,7H-spiro[furo[2,3-e]isoindole-3,4′-piperidin]-7-yl)piperidine-2,6-dione], the half-maximal degradation concentration (DC50) was below 50 nM and the Dmax lay in the range of 60 to 80%.
